Data on 19 compounds can be found in patent publication US8168832B2, “2,4,6-trialkylphenyl substituted cyclopentane-1,3-dione” (Bayer Cropscience AG, priority 2006, dated 2012).

The structures appear in SMILES notation.

The test system of the assay is crop plants (cereal). Description: Container trials with cereal in the greenhouse, mefenpyr 1 day prior to herbicide application (Example B, use of safeners). It is filed as in vivo. As to conditions: without safener. The procedure:
Seeds of monocotyledonous and dicotyledonous weed and crop plants are placed into sandy loam in wood fiber pots or in plastic pots, covered with soil and cultivated in a greenhouse, during the vegetation period also outdoors outside of the greenhouse, under good growth conditions. 2 to 3 weeks after sowing, the test plants are treated at the one- to three-leaf stage. The test compounds, formulated as wettable powders (WP) or liquid (EC), are, in various dosages at a water application rate of 300 l/ha (converted), with wetting agent (0.2 to 0.3%) added, sprayed onto the plants and the surface of the soil. […]
If it is additionally to be tested as to whether safeners can improve the plant compatibility of test substances in the case of crop plants, the following options are used for applying the safener: • seeds of the crop plants are, before sowing, dressed with the safener substance (the amount of safener stated in percent, based on the weight of the seed) • before the application of the test substances, the crop plants are sprayed with the safener at a certain application rate per hectare (usually 1 day before the application of the test substances) • the safener is applied together with the test substance as a tank mix (the amount of safener is stated in g/ha or as a ratio, based on the herbicide). • By comparing the effect of test substances on crop plants without or with safener treatment, it is possible to assess the effect of the safener substance.
Container Trials with Cereal in the Greenhouse
Mefenpyr 1 Day Prior to Herbicide Application

Setting [1] is: 10 days after application, 25 g of a.i./ha.
Setting [2] is: 10 days after application, 50 g of a.i./ha.
The mark [3] stands for this setting: 10 days after application, 100 g of a.i./ha.
The mark [4] stands for this setting: 28 days after application, 25 g of a.i./ha.
Where [5] appears, read: 28 days after application, 50 g of a.i./ha.
Setting [6] is: 28 days after application, 100 g of a.i./ha.
Setting [7] is: 28 days after application, 12.5 g of a.i./ha.

Take `CCc1cc(C)cc(CC)c1C1=C(O)C2CC3OC(C)(C)OC3CC2C1=O` (mixture of isomers) [I-a-13]: the “Summer barley observed (%)” value stood at 30% under setting [1], 50% under setting [2] and 60% under setting [3]. For the same compound, the “Summer wheat observed (%)” value is, setting by setting: under setting [1], 50%; under setting [2], 80%; under setting [3], 80%.
Consider `CCc1cc(C)cc(CC)c1C1=C(OC(=O)C(C)C)[C@H]2CCCC[C@H]2C1=O` (relative stereo) [I-b-23], for which the “Summer wheat observed (%)” value runs as follows: (10 days after application, 12.5 g of a.i./ha) 30%; under setting [1], 40%; under setting [2], 70%; under setting [3], 80%. Further, the “Summer barley observed (%)” value runs as follows: under setting [1], 30%; under setting [2], 60%; under setting [3], 60%.
As for `CCc1cc(C)cc(CC)c1C1=C(OC(=O)COC)[C@H]2CCCC[C@H]2C1=O` (relative stereo) [I-b-25], the “Summer wheat observed (%)” value is reported as 10% under setting [4], 50% under setting [5] and 70% under setting [6]. For the same compound, the “Summer barley observed (%)” value was 40% under setting [5] and 95% under setting [6].
As to `CCc1cc(C)cc(CC)c1C1=C(OC(=O)COC)[C@H]2CCCC[C@@H]2C1=O` (relative stereo) [I-b-27], the “Summer wheat observed (%)” value runs as follows: under setting [7], 10%; under setting [4], 20%; under setting [5], 40%; under setting [6], 70%. The “Summer barley observed (%)” value reads like this: under setting [5], 20%; under setting [6], 50%.
On to `CCc1cc(C)cc(CC)c1C1=C(OC(=O)C(C)C)[C@H]2CCCC[C@@H]2C1=O` (relative stereo) [I-b-28], for which the “Summer barley observed (%)” value under setting [7] amounted to 20%, the “Summer barley observed (%)” value under setting [4] was determined as 30% and the “Summer barley observed (%)” value under setting [5] came out at 75%. Also, the “Summer wheat observed (%)” value is, setting by setting: under setting [7], 10%; under setting [4], 70%; under setting [5], 80%.
`CCc1cc(C)cc(C)c1C1C(=O)[C@H]2CCCC[C@@H]2C1=O` [I-a-1]: the “Summer barley observed (%)” value under setting [7] turned out to be 5%, the “Summer barley observed (%)” value under setting [4] stood at 50% and the “Summer barley observed (%)” value under setting [5] is on record as 70%. The “Summer wheat observed (%)” value reads like this: under setting [7], 10%; under setting [4], 40%; under setting [5], 50%; under setting [6], 50%.
With `CCc1cc(C)cc(C)c1C1=C(O)C2(CCCCC2)CC1=O` [I-a-3], the “Summer barley observed (%)” value under setting [1] is recorded as 15% and the “Summer barley observed (%)” value under setting [2] was found to be 20%. For the same compound, the “Summer wheat observed (%)” value by setting is: under setting [4], 25%; under setting [5], 25%.
In the case of `CCc1cc(CC)c(C2=C(O)C3CCCCC3C2=O)c(CC)c1` (stereo not drawn) [I-a-15], under setting [2], the “Summer barley observed (%)” value amounted to 20% and the “Summer wheat observed (%)” value was determined as 20%. Besides, under setting [3], the “Summer barley observed (%)” value worked out at 30% and the “Summer wheat observed (%)” value came to 30%.
Turning to `CCc1cc(C)cc(C)c1C1=C(O)C2CCCCCC2C1=O` (stereo not drawn) [I-a-18], the “Summer barley observed (%)” value is on record as 20% under setting [4], 50% under setting [5] and 90% under setting [6]. Besides, the “Summer wheat observed (%)” value is listed as 60% under setting [4], 70% under setting [5] and 80% under setting [6].
In the case of `CCc1cc(C)cc(C)c1C1=C(OC(=O)COC)C2(CCCC2)CC1=O` [I-b-11], the “Summer wheat observed (%)” value under setting [2] is 30% and the “Summer wheat observed (%)” value under setting [3] came to 50%.
For the compound `CCc1cc(C)cc(C)c1C1=C(OC(=O)COC)C2CCCCC2C1=O` (stereo not drawn) [I-b-13], the “Summer barley observed (%)” value was determined as 10% under setting [7], 20% under setting [4] and 90% under setting [5]. Also, the “Summer wheat observed (%)” value under setting [7] was 20%, the “Summer wheat observed (%)” value under setting [4] amounted to 70% and the “Summer wheat observed (%)” value under setting [5] came to 85%.
On to `CCc1cc(C)cc(C)c1C1=C(OC(=O)COC)C2CCCCC2C1=O` (stereo not drawn) [I-b-15], for which the “Summer wheat observed (%)” value by setting is: under setting [7], 10%; under setting [4], 30%; under setting [5], 50%; under setting [6], 85%. Further, the “Summer barley observed (%)” value under setting [4] is 10%, the “Summer barley observed (%)” value under setting [5] is listed as 30% and the “Summer barley observed (%)” value under setting [6] turned out to be 90%.
For `CCc1cc(C)cc(C)c1C1=C(OC(=O)C(C)C)C2CCCCC2C1=O` (stereo not drawn) [I-b-16], the “Summer barley observed (%)” value runs as follows: under setting [1], 20%; under setting [2], 40%; under setting [3], 60%. Further, the “Summer wheat observed (%)” value was determined as 20% under setting [1], 50% under setting [2] and 60% under setting [3].
In the case of `CCC(=O)OC1=C(c2c(C)cc(C)cc2CC)C(=O)C2CCCCC12` (stereo not drawn) [I-b-21], the “Summer barley observed (%)” value by setting is: under setting [7], 5%; under setting [4], 30%; under setting [5], 50%; under setting [6], 95%. Moreover, the “Summer wheat observed (%)” value stood at 20% under setting [7], 60% under setting [4] and 70% under setting [5].
On to `CCc1cc(C)cc(CC)c1C1=C(OC(=O)COC)C2(CCCCC2)CC1=O` [I-b-33], for which the “Summer wheat observed (%)” value by setting is: under setting [1], 15%; under setting [2], 30%; under setting [3], 65%.
Consider `CCc1cc(CC)c(C2=C(OC(=O)COC)C3CCCCC3C2=O)c(CC)c1` (stereo not drawn) [I-b-42], for which the “Summer barley observed (%)” value is 20% under setting [1], 40% under setting [2] and 50% under setting [3]. Also, the “Summer wheat observed (%)” value under setting [1] worked out at 40%, the “Summer wheat observed (%)” value under setting [2] is reported as 50% and the “Summer wheat observed (%)” value under setting [3] amounted to 50%.
As to `CCC(=O)OC1=C(c2c(CC)cc(C)cc2CC)C(=O)C2CCCCC12` (stereo not drawn) [I-b-44], the “Summer barley observed (%)” value reads like this: under setting [1], 20%; under setting [2], 40%; under setting [3], 40%. In addition, the “Summer wheat observed (%)” value by setting is: under setting [1], 20%; under setting [2], 40%; under setting [3], 40%.
`CCOC(=O)OC1=C(c2c(C)cc(C)cc2CC)C(=O)C2CCCCC12` (stereo not drawn) [I-c-4]: the “Summer barley observed (%)” value reads like this: under setting [7], 5%; under setting [4], 10%; under setting [5], 30%; under setting [6], 80%. The “Summer wheat observed (%)” value reads like this: under setting [7], 10%; under setting [4], 20%; under setting [5], 90%; under setting [6], 95%.
Regarding `CCOC(=O)OC1=C(c2c(CC)cc(C)cc2CC)C(=O)C2CCCCC12` (stereo not drawn) [I-c-8], the “Summer barley observed (%)” value is, setting by setting: under setting [1], 15%; under setting [2], 20%; under setting [3], 30%. In addition, the “Summer wheat observed (%)” value under setting [1] worked out at 50%, the “Summer wheat observed (%)” value under setting [2] came to 70% and the “Summer wheat observed (%)” value under setting [3] is recorded as 80%.
